The assay concerns P388 leukemia ip, CD2F1 mice, survival T/C. In words: NCI In Vivo Anticancer Drug Screen. Data for tumor model P388 Leukemia (intraperitoneal) in CD2F1 (CDF1) mice. The note with it: endpoint: median survival time, higher = longer survival. The method in brief:
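Mice carrying the transplanted tumor received test compound or vehicle. Survival was recorded in each group, and the value is the treated-group measurement divided by that of the vehicle-treated control group.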

Where [1] appears, read: dose: 50.0 mg/kg/injection, schedule: Q01DX009 (ip), vehicle: saline with Tween-80.
[2] abbreviates: dose: 100.0 mg/kg/injection, schedule: Q01DX009 (ip), vehicle: saline with Tween-80.
The mark [3] stands for this setting: dose: 200.0 mg/kg/injection, schedule: Q01DX009 (ip), vehicle: saline with Tween-80.
Setting [4] is: dose: 50.0 mg/kg/injection, schedule: Q01DX005 (ip), vehicle: saline with Tween-80.
Setting [5] is: dose: 100.0 mg/kg/injection, schedule: Q01DX005 (ip), vehicle: saline with Tween-80.
[6] abbreviates: dose: 200.0 mg/kg/injection, schedule: Q01DX005 (ip), vehicle: saline with Tween-80.
Setting [7] is: dose: 12.5 mg/kg/injection, schedule: Q01DX009 (ip), vehicle: saline with Tween-80.
The mark [8] stands for this setting: dose: 25.0 mg/kg/injection, schedule: Q01DX009 (ip), vehicle: saline with Tween-80.
Setting [9] is: dose: 50.0 mg/kg/injection, schedule: Q01DX009 (ip), vehicle: saline.

Several values for one entry are separate records, joined by “and”; a condition that tells them apart may be missing. Identical values can stand only once. Toxic doses and inconclusive results are not listed.

This note sets out measurements from PubChem BioAssay AID330 (DTP/NCI, 2004).

Take `COc1ccc(C2(C)C=C(C)C=C(C)C2=O)cc1` (configuration not stated): the T/C is, setting by setting: under setting [1], 100 % of control; under setting [2], 106 % of control; under setting [3], 100 % of control.
Take `COc1ccc(-c2cc3cc(CCCOC4OC(COC5OCC(O)C(O)C5O)C(O)C(O)C4O)cc(OC)c3o2)cc1OC` (configuration not stated): the T/C is, setting by setting: (dose: 18.75 mg/kg/injection, schedule: Q01DX005 (ip), vehicle: Klucel (hydroxypropylcellulose) (HPC)) 96 % of control; (dose: 37.5 mg/kg/injection, schedule: Q01DX005 (ip), vehicle: Klucel (hydroxypropylcellulose) (HPC)) 88 % of control.
`CN1c2ccccc2SC1(C)CCC(=O)O` (configuration not stated): the T/C by setting is: (dose: 60.0 mg/kg/injection, schedule: Q01DX005 (ip), vehicle: Klucel (hydroxypropylcellulose) (HPC)) 105 % of control; (dose: 120.0 mg/kg/injection, schedule: Q01DX005 (ip), vehicle: Klucel (hydroxypropylcellulose) (HPC)) 104 % of control.
For `C=Cc1c2[n-]c(c1C)/C=c1\[n-]/c(c(C)c1C=C)=C\c1[n-]c(c(CCC(=O)O)c1C)/C=c1\[n-]/c(c(C)c1CCC(=O)O)=C\2.[Pt+4]`, the T/C was 89 % of control (dose: 50.0 mg/kg/injection, schedule: Q04DX002 (ip), vehicle: saline); 100 % of control (dose: 100.0 mg/kg/injection, schedule: Q04DX002 (ip), vehicle: saline); 97 % of control (dose: 200.0 mg/kg/injection, schedule: Q04DX002 (ip), vehicle: saline).
In the case of `O=C1CSC(c2ccc([N+](=O)[O-])cc2[N+](=O)[O-])N1c1nncs1` (configuration not stated), the T/C under setting [4] was 95 % of control, the T/C under setting [5] was 95 % of control and the T/C under setting [6] was 95 % of control.
As to `CCOC(=O)c1cc(-c2ccccc2)c(OC)c(=O)nc1-c1ccccc1`, the T/C reads like this: (dose: 25.0 mg/kg/injection, schedule: Q01DX005 (ip), vehicle: saline with Tween-80) 100 % of control; under setting [4], 100 % of control; under setting [5], 100 % of control; under setting [6], 112 % of control.
With `CC1(C)N=C(N)N=C(N)N1c1ccc(CCC(=O)Nc2ccc(S(=O)(=O)F)cc2)cc1`, the T/C is 155 % of control (dose: 4.4 mg/kg/injection, schedule: Q01DX009 (ip), vehicle: saline with Tween-80); 150 % of control (dose: 6.6 mg/kg/injection, schedule: Q01DX009 (ip), vehicle: saline with Tween-80); 160 % of control (dose: 10.0 mg/kg/injection, schedule: Q01DX009 (ip), vehicle: saline with Tween-80); 169 % of control under setting [7]; 180 % of control under setting [8]; 168 % of control (dose: 44.0 mg/kg/injection, schedule: Q01DX009 (ip), vehicle: saline with Tween-80). The T/C was 177 % of control under setting [1]; 93 % of control under setting [9]; 177 % of control (dose: 66.0 mg/kg/injection, schedule: Q01DX009 (ip), vehicle: saline with Tween-80).
`N#CC(OC1OC(COC2OC(CO)C(O)C(O)C2O)C(O)C(O)C1O)c1ccccc1` (configuration not stated): the T/C is, setting by setting: (dose: 25.0 mg/kg/injection, schedule: Q01DX009 (ip), vehicle: water) 102 % of control and 108 % of control; (dose: 50.0 mg/kg/injection, schedule: Q01DX009 (ip), vehicle: water) 101 % of control and 108 % of control; (dose: 100.0 mg/kg/injection, schedule: Q01DX009 (ip), vehicle: water) 102 % of control and 105 % of control and 94 % of control; (dose: 200.0 mg/kg/injection, schedule: Q01DX009 (ip), vehicle: water) 105 % of control and 109 % of control and 92 % of control; (dose: 400.0 mg/kg/injection, schedule: Q01DX009 (ip), vehicle: water) 105 % of control and 110 % of control and 96 % of control; (dose: 800.0 mg/kg/injection, schedule: Q01DX009 (ip), vehicle: saline) 98 % of control. Moreover, the T/C (dose: 800.0 mg/kg/injection, schedule: Q01DX009 (ip), vehicle: water) is 105 % of control and 123 % of control and 96 % of control; the T/C (dose: 1600.0 mg/kg/injection, schedule: Q01DX009 (ip), vehicle: saline) is 100 % of control.
On to `O=c1[nH]c2n[nH]c(=S)n2c2c1CCCC2`, for which the T/C is, setting by setting: (dose: 50.0 mg/kg/injection, schedule: Q04DX002 (ip), vehicle: saline with Tween-80) 99 % of control; (dose: 100.0 mg/kg/injection, schedule: Q04DX002 (ip), vehicle: saline with Tween-80) 97 % of control; (dose: 200.0 mg/kg/injection, schedule: Q04DX002 (ip), vehicle: saline with Tween-80) 99 % of control.
Turning to `Nc1ccc([N+](=O)[O-])cc1Nc1c2ccccc2nc2ccccc12`, the T/C (dose: 50.0 mg/kg/injection, schedule: Q01DX009 (ip), vehicle: Klucel (hydroxypropylcellulose) (HPC)) was 108 % of control and the T/C (dose: 100.0 mg/kg/injection, schedule: Q01DX009 (ip), vehicle: Klucel (hydroxypropylcellulose) (HPC)) was 107 % of control.
On to `CC(C)N(CCCOC(=O)c1ccc(N)cc1)C(C)C`, for which the T/C (dose: 25.0 mg/kg/injection, schedule: Q01DX009 (ip), vehicle: saline) was 100 % of control; the T/C (dose: 25.0 mg/kg/injection, schedule: Q04DX003 (ip), vehicle: saline) is 100 % of control; the T/C under setting [9] is 100 % of control; the T/C (dose: 50.0 mg/kg/injection, schedule: Q04DX003 (ip), vehicle: saline) was 91 % of control; the T/C (dose: 100.0 mg/kg/injection, schedule: Q01DX009 (ip), vehicle: saline) is 100 % of control; the T/C (dose: 100.0 mg/kg/injection, schedule: Q04DX003 (ip), vehicle: saline) is 100 % of control.
Take `CC(=O)OCCn1c2ccccc2nc2cc3c(cc21)c(Cl)c(=O)c1ccccc13`: the T/C (dose: 50.0 mg/kg/injection, schedule: Q04DX003 (ip), vehicle: saline with Tween-80) was 96 % of control; the T/C (dose: 100.0 mg/kg/injection, schedule: Q04DX003 (ip), vehicle: saline with Tween-80) was 100 % of control; the T/C (dose: 200.0 mg/kg/injection, schedule: Q04DX003 (ip), vehicle: saline with Tween-80) was 100 % of control.
As for `c1ccc2cc3c(N=Nc4cc5ccccc5[nH]4)cccc3cc2c1`, the T/C (dose: 100.0 mg/kg/injection, schedule: Q01DX001 (ip), vehicle: saline with Tween-80) was 97 % of control; the T/C (dose: 200.0 mg/kg/injection, schedule: Q01DX001 (ip), vehicle: saline with Tween-80) was 97 % of control; the T/C (dose: 400.0 mg/kg/injection, schedule: Q01DX001 (ip), vehicle: saline with Tween-80) is 94 % of control.
As to `COC(=S)c1cccc(C(=S)OC)c1`, the T/C by setting is: under setting [1], 108 % of control; under setting [2], 115 % of control; under setting [3], 108 % of control.
For `CN(C=C(C#N)C#N)c1ccccc1`, the T/C is, setting by setting: under setting [7], 103 % of control; under setting [8], 99 % of control; under setting [1], 99 % of control.
Take `NC(=S)N/N=C\C(=O)c1ccccc1O`: the T/C reads like this: (dose: 9.4 mg/kg/injection, schedule: Q01DX009 (ip), vehicle: saline with Tween-80) 100 % of control (2×) and 101 % of control; (dose: 18.75 mg/kg/injection, schedule: Q01DX009 (ip), vehicle: saline with Tween-80) 90 % of control and 95 % of control and 98 % of control; (dose: 75.0 mg/kg/injection, schedule: Q01DX009 (ip), vehicle: saline with Tween-80) 99 % of control and 105 % of control; (dose: 150.0 mg/kg/injection, schedule: Q01DX009 (ip), vehicle: saline with Tween-80) 103 % of control.
For the compound `CC1CC(C)(C)N=C(CCC2CCCC23OCCO3)O1` (configuration not stated), the T/C is 100 % of control under setting [1]; 104 % of control under setting [2]; 96 % of control (dose: 100.0 mg/kg/injection, schedule: Q04DX003 (ip), vehicle: saline sonified); 95 % of control under setting [3]; 96 % of control (dose: 200.0 mg/kg/injection, schedule: Q04DX003 (ip), vehicle: saline sonified); 100 % of control (dose: 400.0 mg/kg/injection, schedule: Q04DX003 (ip), vehicle: saline sonified).
Turning to `Cc1ccccc1SSc1ccccc1C`, the T/C under setting [1] was 113 % of control.
For `OCC(Cl)Cc1cnc[nH]1` (configuration not stated), the T/C was 102 % of control under setting [1], 99 % of control under setting [2] and 93 % of control under setting [3].
`O=[N+]([O-])c1cccc2c1CCCC2`: the T/C runs as follows: under setting [7], 100 % of control; under setting [8], 109 % of control; under setting [1], 90 % of control.
As for `CN(C)Cc1[nH]c2ccccc2c1Sc1ccccc1`, the T/C runs as follows: (dose: 60.0 mg/kg/injection, schedule: Q01DX005 (ip), vehicle: saline with Tween-80) 100 % of control; (dose: 120.0 mg/kg/injection, schedule: Q01DX005 (ip), vehicle: saline with Tween-80) 119 % of control.
Regarding `CCCCCNCC(=O)N1CCCC1C(=O)OC(C)(C)C` (configuration not stated), the T/C was 97 % of control under setting [4], 105 % of control under setting [5] and 103 % of control under setting [6].
For `CC(=O)C(=Cc1ccc(C)cc1)C(C)=O` the same measures were 99 % of control, 103 % of control and 110 % of control.
